{"source": "patent US6887879B2", "about": "“Pharmaceutical combination of antiviral agents” (priority 1999, dated 2005)", "key": {"[1]": {"molecular_target": "T1, wt HIV-1 RT (Human immunodeficiency virus type 1 group M subtype B, UniProt P04585)", "T1 construct": "Wild type (wt) version of recombinant HIV-1 RT were expressed with a histidine tag; histidine tag; made in house; host or cells: E. coli", "assay": "RT inhibition assay, RNA dependent DNA polymerase activity", "type": "biochemical", "details": "template/primer poly(rA).oligo(dT)12-18; substrate dTTP", "protocol": "Wild type (wt) version of recombinant HIV-1 RT were expressed with a histidine tag in an E. coli protein expression system.\nRT inhibition assay. The inhibition of HIV-1 RT RNA dependent DNA polymerase activity of DXG-TP was assessed under steady-state enzymatic kinetics by employing homopolymeric RNA templates/DNA primers (T/P) and a heteropolymeric RNA template/DNA primer. The heteropolymeric RNA template contains the HIV-1 primer binding sequence, US and R regions (designated as HIV-PBS). […] The oligodeoxynucleotide primer (dPR) is an 18-mer (5′-[…]-3′) which is complementary to the HIV-1 primer binding sequence. […] The reverse transcription reaction contained final concentrations of 50 mM Tris-HCl, pH 7.8, 60 mM KCl, 10 mM MgCl2, 0.1 U/ml homopolymeric T/P and 5 μM [^3H]dNTP substrate or 25 nM HIV-PBS/dPR and 5 μM each of dTTP, dCTP, dGTP and [-^32P]dATP in […]. […] Inhibition of dNTP incorporation/chain termination. The effect of DXG-TP on RT activity was also assessed using the chain termination/dNTP incorporation assay in which inhibition of nascent DNA synthesis (chain termination) was monitored based upon cDNA synthesis as previously described (Arts et al., 1993; J. Biol. Hem. 269:14672-14680 and Gu et al., 1995, Proc. Natl. Acad. Sci. USA 92:2760-2764). HIV-PBS RNA template and dPR DNA primer were used in this system. The RT reactions were performed in […] containing 50 mM Tris (pH 7.8), 75 mM KCl, 10 mM MgCl2, 100 μM of dNTPs. The HIV-PBS RNA template (50 nM) and [−^32P]-ATP labeled oligodeoxynucleotide primer (125 nM) were included in the reaction. The mixture was first denatured at 85° C. for 2 minutes, then cooled to 55° C. for 8 min, and finally cooled to 37° C. at which time recombinant HIV RT was added (42.5 nM). The reactions were allowed to proceed at 37° C. for 60 min in the presence or absence of inhibitors. The transcribed DNA products were separated on a 5% denaturing polyacrylamide gel and visualized by exposure to X-ray film."}, "[2]": {"assay": "Cytotoxicity, [3H]-thymidine uptake, DU145", "type": "cell-based", "details": "human, DU145 cells", "protocol": "(§1) The cellular toxicity of the BCH compounds were assessed on various cells using [^3H]-thymidine uptake. The various cells, including Molt-4, HT1080, DU-145, HepG 2 and HSF, were plated at a concentration of 1-2×10^3 cells per well (96 well plates). However, PHA-stimulated PBMCs were cultured at a concentration of 4×10^4. After a 24 hr incubation period, 10-fold serial diluted compounds (10^−4 M to 10^−10 M) were added to the culture medium and the cells were further incubated for 72 hrs. [^3H]-thymidine was added during the final 18 hr incubation period. After incubation with the [^3H]-thymidine, the cells were washed once with PBS, treated with trypsin it the cells were adherent, and then resuspended in water (hypotonic lysing of cells) The cellular extract was applied directly to a Tomtec Harvester 96. Using this instrument the extracted DNA is adsorbed onto filters, washed and the incorporated [^3H]-thymidine is then counted."}, "[3]": {"assay": "Cytotoxicity, [3H]-thymidine uptake, HSF", "type": "cell-based", "details": "human, human skin fibroblasts (HSF)", "protocol": "as §1"}, "[4]": {"test_system": "recombinant HXB2-D 65R", "assay": "microbe, parasite or virus in culture", "type": "cell-based, HIV-1", "details": "Human immunodeficiency virus 1, HXB2, read-out: EC50 in CBMCs", "protocol": "(§2) HIV-1IIIB laboratory strain and HXB2-D recombinant of HIV-1 were kindly supplied by R. C. Gallo (Institute of Human Virology, Baltimore, Md.). […] The recombinant viruses were generated by transfection of proviral DNA into MT-4 cells with Lipofectamine using the protocol recommended by the manufacturer .(Gibco BRL, Montreal, Canada). […] Stock viruses were prepared from clarified culture supernatants by centrifugation and stored at −70° C. The viruses were titrated by limited dilution with a 4-fold serial dilution."}, "[5]": {"test_system": "recombinant HXB2-D 184V", "assay": "microbe, parasite or virus in culture", "type": "cell-based, HIV-1", "details": "Human immunodeficiency virus 1, HXB2, read-out: EC50 in CBMCs", "protocol": "as §2"}, "[6]": {"test_system": "recombinant HXB2-D 41L/70R/215Y/219Q", "assay": "microbe, parasite or virus in culture", "type": "cell-based, HIV-1", "details": "Human immunodeficiency virus 1, HXB2, read-out: EC50 in CBMCs", "protocol": "as §2"}, "[7]": {"test_system": "recombinant HXB2-D 41L/215Y/184V", "assay": "microbe, parasite or virus in culture", "type": "cell-based, HIV-1", "details": "Human immunodeficiency virus 1, HXB2, read-out: EC50 in CBMCs", "protocol": "as §2"}, "[8]": {"test_system": "recombinant HXB2-D 74V", "assay": "microbe, parasite or virus in culture", "type": "cell-based, HIV-1", "details": "Human immunodeficiency virus 1, HXB2, read-out: EC50 in CBMCs", "protocol": "as §2"}, "[9]": {"test_system": "HIV-1IIIB", "assay": "Anti-HIV-1 antiviral assay, laboratory strain HIV-1IIIB, RT activity in culture supernatants", "method": "Most experiments were performed with a laboratory strain HIV-1III. […] The cells were incubated with virus using the indicated multiplicity of infection (MOI) for 2-3 hrs. The MOI used for each experiment was dependent upon the cell line and virus strain used, and was generally in the range of 0.005 to 0.5. For example, in assays performed using the established cell line MT-2, HIV-1IIIB at an MOI of 0.005 was used to infect cells. The unbound virus was then removed by washing the cells, followed by plating the cells into a 96-well plate. The infected cells were cultured in the presence of a serial concentrations of the test compound for 5-7 days. The anti-HIV-1 efficacy was determined by testing for HIV-1 RT activity in the cell culture supernatants. All assays were performed in duplicate and at least two independent experiments were performed. […] The susceptibilities of the HIV-1 variants to antiretroviral agents are expressed as the mean of the EC50 determinations."}, "[10]": {"assay": "Cytotoxicity, [3H]-thymidine uptake, HT-1080", "type": "cell-based", "details": "human, HT-1080 cells", "protocol": "as §1"}, "[11]": {"assay": "Cytotoxicity, [3H]-thymidine uptake, HepG2", "type": "cell-based", "details": "human, HepG2 cells", "protocol": "as §1"}, "[12]": {"molecular_target": "T1, wt HIV-1 RT", "assay": "Chain elongation/termination assay", "type": "biochemical", "details": "HIV-PBS template, dPR primer, raising inhibitor concentration", "protocol": "RT inhibition assay. The inhibition of HIV-1 RT RNA dependent DNA polymerase activity of DXG-TP was assessed under steady-state enzymatic kinetics by employing homopolymeric RNA templates/DNA primers (T/P) and a heteropolymeric RNA template/DNA primer. The heteropolymeric RNA template contains the HIV-1 primer binding sequence, US and R regions (designated as HIV-PBS). […] The oligodeoxynucleotide primer (dPR) is an 18-mer (5′-[…]-3′) which is complementary to the HIV-1 primer binding sequence. […] Inhibition of dNTP incorporation/chain termination. […] HIV-PBS RNA template and dPR DNA primer were used in this system. The RT reactions were performed in […] containing 50 mM Tris (pH 7.8), 75 mM KCl, 10 mM MgCl2, 100 μM of dNTPs. […] The reactions were allowed to proceed at 37° C. for 60 min in the presence or absence of inhibitors. The transcribed DNA products were separated on a 5% denaturing polyacrylamide gel and visualized by exposure to X-ray film.\nThe chain elongation/termination assay provides a method to directly visualize the products of incorporation of dideoxynucleotide monophosphates into nascent DNA by monitoring the reaction products using polyacrylamide gel electrophoresis. The experiment was performed using wt HIV-1 RT, and HIV-PBS heteropolymeric template, and [^32p]ATP labeled dPR primer in the presence of various concentrations of RT inhibitor. […] As comparison, NNRTI nevirapine was also used in the assay."}, "[13]": {"test_system": "recombinant HXB2-D 106A/181C", "assay": "microbe, parasite or virus in culture", "type": "cell-based, HIV-1", "details": "Human immunodeficiency virus 1, HXB2, read-out: EC50 in CBMCs", "protocol": "as §2"}, "[14]": {"test_system": "HIV-1 clinical isolate 4877", "assay": "microbe, parasite or virus in culture", "type": "cell-based", "details": "Human immunodeficiency virus 1, read-out: EC50 in CBMCs", "protocol": "as §2\n(§3) The population of HIV-1 in infected individual is quasispecies and the sensitivity of these different viruses found in clinical isolates to antiviral chemotherapy might be quite variable. In addition, HIV-1 isolates obtained from patients receiving long-term antiretroviral therapy might behave differently from cloned virus containing genetically engineered mutations in the RT gene. For these reasons, clinical isolates of HIV-1 from antiviral naive and drug-treated patients were assayed in PHA-stimulated CBMCs for their sensitivity to DXG and DAPD accompanied with approved antiretroviral agents. The genotype of the HIV-1 clinical isolates were determined as described above."}, "[15]": {"test_system": "HIV-1 clinical isolate 4924", "assay": "microbe, parasite or virus in culture", "type": "cell-based", "protocol": "as §2, §3"}, "[16]": {"test_system": "recombinant HXB2-D 10R/46I/63P/82T/84V", "assay": "microbe, parasite or virus in culture", "type": "cell-based, HIV-1", "details": "Human immunodeficiency virus 1, HXB2, read-out: EC50 in CBMCs", "protocol": "as §2"}, "[17]": {"test_system": "HIV-1 clinical isolate 4833", "assay": "microbe, parasite or virus in culture", "type": "cell-based", "protocol": "as §2, §3"}, "[18]": {"test_system": "HIV-1 clinical isolate 4526", "assay": "Antiviral assay, HIV-1 clinical isolate 4526, CBMCs", "type": "cell-based", "details": "Human immunodeficiency virus 1, naive", "protocol": "as §2, §3"}}, "note": "Read-outs that look alike come from different tables or passages of the source.", "data": [{"compound": "Cc1cn([C@H]2CC[C@@H](COP(=O)(O)OP(=O)(O)OP(=O)(O)O)O2)c(=O)[nH]c1=O", "note": "[ddTTP, reference compound]", "values": [{"measurement": "IC50", "setting": "[1]", "value": "24 ± 3", "unit": "nM"}]}, {"compound": "Nc1ccn([C@@H]2CS[C@H](CO)O2)c(=O)n1", "note": "[lamivudine, reference compound]", "values": [{"measurement": "CC50 at 72 h", "setting": "[2]", "value": "> 500000", "unit": "nM"}, {"measurement": "CC50 at 72 h", "setting": "[3]", "value": 400000, "unit": "nM"}, {"measurement": "EC50", "setting": "[4]", "value": "360 ± 170", "unit": "nM"}, {"measurement": "EC50", "setting": "[5]", "value": "> 50000", "unit": "nM"}, {"measurement": "EC50", "setting": "[6]", "value": "62 ± 20", "unit": "nM"}, {"measurement": "EC50", "setting": "[7]", "value": "> 50000", "unit": "nM"}, {"measurement": "EC50", "setting": "[8]", "value": "120 ± 70", "unit": "nM"}, {"measurement": "EC50", "setting": "[9]; Human immunodeficiency virus 1, Jurkat, read-out: EC50, mean values ± SD", "value": "530 ± 20", "unit": "nM"}, {"measurement": "EC50", "setting": "[9]; Human immunodeficiency virus 1, MT2, read-out: EC50, mean values ± SD", "value": "91 ± 80", "unit": "nM"}, {"measurement": "EC50", "setting": "[9]; Human immunodeficiency virus 1, MT4, read-out: EC50, mean values ± SD", "value": "56 ± 14", "unit": "nM"}, {"measurement": "EC50", "setting": "[9]; Human immunodeficiency virus 1, read-out: EC50, mean values ± SD", "value": "23 ± 11", "unit": "nM"}, {"measurement": "CC50 at 72 h", "setting": "[10]", "value": "> 500000", "unit": "nM"}, {"measurement": "CC50 at 72 h", "setting": "[11]", "value": 350000, "unit": "nM"}]}, {"compound": "Nc1ccn([C@@H]2CS[C@H](COP(=O)(O)OP(=O)(O)OP(=O)(O)O)O2)c(=O)n1", "note": "[lamivudine-TP]", "values": [{"measurement": "chain termination / full-length products, in words", "setting": "[12]", "value": "caused increasing chain termination but decreasing full-length products"}]}, {"compound": "Cc1ccnc2c1NC(=O)c1cccnc1N2C1CC1", "note": "[nevirapine, reference compound]", "values": [{"measurement": "chain termination / full-length products, in words", "setting": "[12]", "value": "showed the decrease of the full-length DNA products, but there were no extra chain termination bands generated"}, {"measurement": "EC50", "setting": "[13]", "value": "> 10000", "unit": "nM"}, {"measurement": "EC50", "setting": "[14]", "value": 65, "unit": "nM"}, {"measurement": "EC50", "setting": "[15]; Human immunodeficiency virus 1", "value": "> 10000", "unit": "nM"}, {"measurement": "EC50", "setting": "[15]; Human immunodeficiency virus 1, read-out: EC50 in CBMCs", "value": "> 10000", "unit": "nM"}]}, {"compound": "CC(C)(C)NC(=O)[C@@H]1C[C@@H]2CCCC[C@@H]2CN1C[C@@H](O)[C@H](Cc1ccccc1)NC(=O)[C@H](CC(N)=O)NC(=O)c1ccc2ccccc2n1", "note": "[saquinavir, reference compound]", "values": [{"measurement": "EC50", "setting": "[16]", "value": 75, "unit": "nM"}, {"measurement": "decreased sensitivity compared to the baseline isolate 4526", "setting": "[17]", "value": "about 20 fold"}, {"measurement": "EC50", "setting": "[17]; Human immunodeficiency virus 1, therapy Saquinavir (48 weeks), read-out: EC50 in CBMCs", "value": 110, "unit": "nM"}, {"measurement": "EC50", "setting": "[18]", "value": 6.3, "unit": "nM"}]}, {"compound": "(+) enantiomer of -D-1′,3′-dioxolane guanosine", "values": [{"measurement": "EC50", "setting": "[9]; read-out: EC50, mean values ± SD, MT-2 cells, HIV-1IIIB", "value": 700, "unit": "nM"}]}]}
